Experiment: Sensory evaluation of mayonnaise containing the agent
Conditions: ten panels
Method: Sensory evaluation of each drink was carried out by ten panels. […] The piercing aroma characteristic to aldehydes is a characteristic aroma common to every aldehyde and refers to an irritant off-smell giving an image of deteriorated oils and fats, soap, metals, Houttuynia cordata, etc. The judgment of smell was performed by comparing the effects at different concentrations of the acid taste and/or acid smell-reducing agent, and a concentration giving the highest acid taste/acid smell quality was selected.
A mayonnaise base material (100 g) was prepared by mixing 12 g of edible vinegar, 75 g of vegetable oils and fats, and 13 g of an aqueous solution containing egg yolk and spices. To the resulting mixture was added (Z,Z)-4,7-tridecadienal as the acid taste and/or acid smell-reducing agent of the present invention in concentrations shown in the following Table 11 to give mayonnaise containing the agent, followed by sensory evaluation as in Example 1.

SMILES: CCCCC/C=C\C/C=C\CCC=O [(Z,Z)-4,7-tridecadienal]
- A: number of panels, acid taste/acid smell extreme and cause irritation (0.005 ppt): 10
- B: number of panels, acid taste/acid smell slightly strong and slightly cause irritation (0.005 ppt): 0
- C: number of panels, acid taste/acid smell slightly unpleasant (0.005 ppt): 0
- Flavor judgment: number of panels who judged acid taste/acid smell quality the highest (0.005 ppt): 0
- N: number of panels, irritation of acid reduced to give a mild acid taste (0.005 ppt): 0
- X: number of panels, acid taste reduced but piercing odor characteristic to aldehydes unpleasant (0.005 ppt): 0
- A: number of panels, acid taste/acid smell extreme and cause irritation (0.02 ppt): 8
- B: number of panels, acid taste/acid smell slightly strong and slightly cause irritation (0.02 ppt): 2
- C: number of panels, acid taste/acid smell slightly unpleasant (0.02 ppt): 0
- Flavor judgment: number of panels who judged acid taste/acid smell quality the highest (0.02 ppt): 0
- N: number of panels, irritation of acid reduced to give a mild acid taste (0.02 ppt): 0
- X: number of panels, acid taste reduced but piercing odor characteristic to aldehydes unpleasant (0.02 ppt): 0
- A: number of panels, acid taste/acid smell extreme and cause irritation (0.1 ppt): 7
- B: number of panels, acid taste/acid smell slightly strong and slightly cause irritation (0.1 ppt): 2
- C: number of panels, acid taste/acid smell slightly unpleasant (0.1 ppt): 1
- Flavor judgment: number of panels who judged acid taste/acid smell quality the highest (0.1 ppt): 0
- N: number of panels, irritation of acid reduced to give a mild acid taste (0.1 ppt): 0
- X: number of panels, acid taste reduced but piercing odor characteristic to aldehydes unpleasant (0.1 ppt): 0
- A: number of panels, acid taste/acid smell extreme and cause irritation (0.2 ppt): 3
- B: number of panels, acid taste/acid smell slightly strong and slightly cause irritation (0.2 ppt): 4
- C: number of panels, acid taste/acid smell slightly unpleasant (0.2 ppt): 3
- Flavor judgment: number of panels who judged acid taste/acid smell quality the highest (0.2 ppt): 0
- N: number of panels, irritation of acid reduced to give a mild acid taste (0.2 ppt): 0
- X: number of panels, acid taste reduced but piercing odor characteristic to aldehydes unpleasant (0.2 ppt): 0
- A: number of panels, acid taste/acid smell extreme and cause irritation (0.5 ppt): 0
- B: number of panels, acid taste/acid smell slightly strong and slightly cause irritation (0.5 ppt): 2
- C: number of panels, acid taste/acid smell slightly unpleasant (0.5 ppt): 3
- Flavor judgment: number of panels who judged acid taste/acid smell quality the highest (0.5 ppt): 1
- N: number of panels, irritation of acid reduced to give a mild acid taste (0.5 ppt): 5
- X: number of panels, acid taste reduced but piercing odor characteristic to aldehydes unpleasant (0.5 ppt): 0
- A: number of panels, acid taste/acid smell extreme and cause irritation (1 ppb): 0
- B: number of panels, acid taste/acid smell slightly strong and slightly cause irritation (1 ppb): 0
- C: number of panels, acid taste/acid smell slightly unpleasant (1 ppb): 2
- Flavor judgment: number of panels who judged acid taste/acid smell quality the highest (1 ppb): 0
- N: number of panels, irritation of acid reduced to give a mild acid taste (1 ppb): 4
- X: number of panels, acid taste reduced but piercing odor characteristic to aldehydes unpleasant (1 ppb): 4
- A: number of panels, acid taste/acid smell extreme and cause irritation (1 ppt): 0
- B: number of panels, acid taste/acid smell slightly strong and slightly cause irritation (1 ppt): 2
- C: number of panels, acid taste/acid smell slightly unpleasant (1 ppt): 2
- Flavor judgment: number of panels who judged acid taste/acid smell quality the highest (1 ppt): 1
- N: number of panels, irritation of acid reduced to give a mild acid taste (1 ppt): 6
- X: number of panels, acid taste reduced but piercing odor characteristic to aldehydes unpleasant (1 ppt): 0
- A: number of panels, acid taste/acid smell extreme and cause irritation (5 ppt): 0
- B: number of panels, acid taste/acid smell slightly strong and slightly cause irritation (5 ppt): 0
- C: number of panels, acid taste/acid smell slightly unpleasant (5 ppt): 2
- Flavor judgment: number of panels who judged acid taste/acid smell quality the highest (5 ppt): 4
- N: number of panels, irritation of acid reduced to give a mild acid taste (5 ppt): 8
- X: number of panels, acid taste reduced but piercing odor characteristic to aldehydes unpleasant (5 ppt): 0
- A: number of panels, acid taste/acid smell extreme and cause irritation (10 ppb): 0
- B: number of panels, acid taste/acid smell slightly strong and slightly cause irritation (10 ppb): 0
- C: number of panels, acid taste/acid smell slightly unpleasant (10 ppb): 1
- Flavor judgment: number of panels who judged acid taste/acid smell quality the highest (10 ppb): 0
- N: number of panels, irritation of acid reduced to give a mild acid taste (10 ppb): 2
- X: number of panels, acid taste reduced but piercing odor characteristic to aldehydes unpleasant (10 ppb): 7
- A: number of panels, acid taste/acid smell extreme and cause irritation (20 ppt): 0
- B: number of panels, acid taste/acid smell slightly strong and slightly cause irritation (20 ppt): 0
- C: number of panels, acid taste/acid smell slightly unpleasant (20 ppt): 3
- Flavor judgment: number of panels who judged acid taste/acid smell quality the highest (20 ppt): 4
- N: number of panels, irritation of acid reduced to give a mild acid taste (20 ppt): 7
- X: number of panels, acid taste reduced but piercing odor characteristic to aldehydes unpleasant (20 ppt): 0
- A: number of panels, acid taste/acid smell extreme and cause irritation (50 ppb): 0
- B: number of panels, acid taste/acid smell slightly strong and slightly cause irritation (50 ppb): 0
- C: number of panels, acid taste/acid smell slightly unpleasant (50 ppb): 1
- Flavor judgment: number of panels who judged acid taste/acid smell quality the highest (50 ppb): 0
- N: number of panels, irritation of acid reduced to give a mild acid taste (50 ppb): 1
- X: number of panels, acid taste reduced but piercing odor characteristic to aldehydes unpleasant (50 ppb): 8
- A: number of panels, acid taste/acid smell extreme and cause irritation (100 ppt): 0
- B: number of panels, acid taste/acid smell slightly strong and slightly cause irritation (100 ppt): 1
- C: number of panels, acid taste/acid smell slightly unpleasant (100 ppt): 4
- Flavor judgment: number of panels who judged acid taste/acid smell quality the highest (100 ppt): 0
- N: number of panels, irritation of acid reduced to give a mild acid taste (100 ppt): 4
- X: number of panels, acid taste reduced but piercing odor characteristic to aldehydes unpleasant (100 ppt): 1
- A: number of panels, acid taste/acid smell extreme and cause irritation (500 ppt): 0
- B: number of panels, acid taste/acid smell slightly strong and slightly cause irritation (500 ppt): 0
- C: number of panels, acid taste/acid smell slightly unpleasant (500 ppt): 4
- Flavor judgment: number of panels who judged acid taste/acid smell quality the highest (500 ppt): 0
- N: number of panels, irritation of acid reduced to give a mild acid taste (500 ppt): 4
- X: number of panels, acid taste reduced but piercing odor characteristic to aldehydes unpleasant (500 ppt): 2

Reference: patent publication US20140120232A1, “ACID TASTE/ACID SMELL-REDUCING AGENT” (T. HASEGAWA CO., LTD., priority 2011, published 2014)
